Assay results published in patent publication US4584377A, “Novel Fredericamycin A derivatives” (SS Pharmaceutical Co., Ltd., priority 1983, dated 1986).
Values after ≈ are worked out from the molar mass of the structure shown. Like-named read-outs stand apart in the source and are kept apart here.

Experiments:
[1] = test system: Bacillus subtilis ATCC 6633; test: MIC, antibacterial activity (agar culture); format: cell-based; details: ATCC6633, 37° C., 18-20 hours, Mueller-Hinton agar, read-out: Minimum inhibitory concentration MIC
[2] = test system: Staphylococcus aureus FDA 209P; test: MIC, antibacterial activity (agar culture); format: cell-based; details: FDA209P, 37° C., 18-20 hours, Mueller-Hinton agar, read-out: Minimum inhibitory concentration MIC
[3] = test system: Staphylococcus aureus TERAGIMA; test: MIC, antibacterial activity (agar culture); format: cell-based; details: 37° C., 18-20 hours, Mueller-Hinton agar, read-out: Minimum inhibitory concentration MIC
[4] = test system: Staphylococcus aureus Smith; test: MIC, antibacterial activity (agar culture); format: cell-based; details: 37° C., 18-20 hours, Mueller-Hinton agar, read-out: Minimum inhibitory concentration MIC
[5] = test system: Staphylococcus epidermidis ATCC 12228; test: MIC, antibacterial activity (agar culture); format: cell-based; details: ATCC12228, 37° C., 18-20 hours, Mueller-Hinton agar, read-out: Minimum inhibitory concentration MIC
Sarcina lutea ATCC 9341 = test: MIC, antibacterial activity (agar culture); format: cell-based; details: Micrococcus luteus, ATCC9341, 37° C., 18-20 hours, Mueller-Hinton agar, read-out: Minimum inhibitory concentration MIC
[6] = test system: Streptococcus faecalis IFO 12964; test: MIC, antibacterial activity (agar culture); format: cell-based; details: Enterococcus faecalis, IFO12964, 37° C., 18-20 hours, Mueller-Hinton agar, read-out: Minimum inhibitory concentration MIC
[7] = test system: Micrococcus lysodeikticus IFO 3333; test: MIC, antibacterial activity (agar culture); format: cell-based; details: Micrococcus luteus, IFO3333, 37° C., 18-20 hours, Mueller-Hinton agar, read-out: Minimum inhibitory concentration MIC
Escherichia coli 0-1 = test: MIC, antibacterial activity (agar culture); format: cell-based; details: 01, 37° C., 18-20 hours, Mueller-Hinton agar, read-out: Minimum inhibitory concentration MIC
Salmonella typhi TD = test: MIC, antibacterial activity (agar culture); format: cell-based; details: Salmonella enterica, read-out: Minimum inhibitory concentration MIC
Shigella flexneri 2b = test: MIC, antibacterial activity (agar culture); format: cell-based; details: 37° C., 18-20 hours, Mueller-Hinton agar, read-out: Minimum inhibitory concentration MIC
[8] = test system: Pseudomonas aeruginosa IFO 13736; test: MIC, antibacterial activity (agar culture); format: cell-based; details: IFO13736, 37° C., 18-20 hours, Mueller-Hinton agar, read-out: Minimum inhibitory concentration MIC
[9] = test system: Klebsiella pneumoniae ATCC 10031; test: MIC, antibacterial activity (agar culture); format: cell-based; details: ATCC10031, 37° C., 18-20 hours, Mueller-Hinton agar, read-out: Minimum inhibitory concentration MIC
Proteus vulgaris OXK = test: MIC, antibacterial activity (agar culture); format: cell-based; details: 37° C., 18-20 hours, Mueller-Hinton agar, read-out: Minimum inhibitory concentration MIC
Seratia marcescens NHL = test: MIC, antibacterial activity (agar culture); format: cell-based; details: 37° C., 18-20 hours, Mueller-Hinton agar, read-out: Minimum inhibitory concentration MIC
[10] = test system: Candida albicans NHL 4019; test: MIC, yeasts and molds (agar culture); format: cell-based; details: NHL4019, 28° C., 120 hours, glucose-peptone agar, read-out: Minimum inhibitory concentration MIC
Saccharomyces ruxii 6507 = test: MIC, yeasts and molds (agar culture); format: cell-based; details: 28° C., 120 hours, glucose-peptone agar, read-out: Minimum inhibitory concentration MIC
[11] = test system: Aspergillus niger ATCC 9642; test: MIC, yeasts and molds (agar culture); format: cell-based; details: ATCC9642, 28° C., 120 hours, glucose-peptone agar, read-out: Minimum inhibitory concentration MIC
[12] = test system: Aspergillus oryzae IFM 4014; test: MIC, yeasts and molds (agar culture); format: cell-based; details: IFM4014, 28° C., 120 hours, glucose-peptone agar, read-out: Minimum inhibitory concentration MIC
[13] = test system: Penicillium chrysogenum ATCC 6010; test: MIC, yeasts and molds (agar culture); format: cell-based; details: ATCC6010, 28° C., 120 hours, glucose-peptone agar, read-out: Minimum inhibitory concentration MIC
[14] = test system: Trichophyton mentagrophytes QM 248; test: MIC, yeasts and molds (agar culture); format: cell-based; details: QM248, 28° C., 120 hours, glucose-peptone agar, read-out: Minimum inhibitory concentration MIC
[15] = test system: Microsporum gypseum IFO 8231; test: MIC, yeasts and molds (agar culture); format: cell-based; details: Nannizzia gypsea, IFO8231, 28° C., 120 hours, glucose-peptone agar, read-out: Minimum inhibitory concentration MIC
[16] = test system: Gibberella fujikuroi IAM 8046; test: MIC, yeasts and molds (agar culture); format: cell-based; details: Fusarium fujikuroi, IAM8046, 28° C., 120 hours, glucose-peptone agar, read-out: Minimum inhibitory concentration MIC
[17] = test system: Cladosporium fulvum IAM 5006; test: MIC, yeasts and molds (agar culture); format: cell-based; details: Fulvia fulva, IAM5006, 28° C., 120 hours, glucose-peptone agar, read-out: Minimum inhibitory concentration MIC
[18] = test system: Fusarium moniliforme IAM 5062; test: MIC, yeasts and molds (agar culture); format: cell-based; details: Fusarium verticillioides, IAM5062, 28° C., 120 hours, glucose-peptone agar, read-out: Minimum inhibitory concentration MIC
[19] = test system: Helmintsporium sesamum IAM 5012; test: MIC, yeasts and molds (agar culture); format: cell-based; details: 28° C., 120 hours, glucose-peptone agar, read-out: Minimum inhibitory concentration MIC
[20] = test system: Piricularia oryzae IAM 5016; test: microbe, parasite or virus in culture; format: cell-based
[21] = test system: Debaryomyces Kloecheri IFO 0015; test: MIC, yeasts and molds (agar culture); format: cell-based; details: IFO0015, 28° C., 120 hours, glucose-peptone agar, read-out: Minimum inhibitory concentration MIC
Ehrlich carcinoma = test: Antitumor effect, survival of tumor-inoculated mice; format: in vivo, ICR mice; details: Mus musculus, ip, 240 h, intraperitoneally, once a day for 10 days, read-out: percentage of mean survival time of test and control animals
Meth-A fibrosarcoma = test: as above; format: in vivo, CDF1 mice; details: intraperitoneally, once a day for 10 days
Protocol: (§1) Antitumor effects of some Fredericamycin A derivatives against Ehrlich carcinoma, Meth-A fibrosarcoma and mouse leukemia P-388 were tested in accordance with the following procedures. Antitumor effects against Ehrlich carcinoma and Meth-A fibrosarcoma are expressed by percentage of mean survival time of test and control animals. Antitumor effects against P-388 are expressed by percentage of median survival time of test and control animals.
(§2) (ii) Meth-A fibrosarcoma and mouse leukemia P-388:
(§3) 1×10^6 tumor cells were inoculated to CDF1 mice (.male., Charles River Japan Inc.) intraperitoneally. Each tested compound was given intraperitoneally once a day for 10 days from 1 day after tumor inoculation.

mouse leukemia P-388 = test: as above; format: in vivo, CDF1 mice; details: intraperitoneally, once a day for 10 days
Protocol: as §1, §2, §3

various microorganisms [22] = test: Antibacterial activities against the tested microorganisms (general statement); format: cell-based; details: for each of the tested microorganism (Table 1)
Protocol: It should be noted that the MIC of Fredericamycin A was 100 μg/ml or more for each of the tested microorganism.
Culture conditions for the test microorganisms:
Inoculum size: 1×10^6 cells/ml. In the case of bacteria, each bacterium was cultured at 37° C. for 18-20 hours on a Mueller-Hinton agar (product of Difco Corp.). In the case of yeasts and molds, each microorganism was cultured at 28° C. for 120 hours on a glucose-peptone agar.

physchem = format: physicochemical; details: 10 μg/ml in dimethylsulfoxide/physiological saline
Protocol: The stability of some Fredericamycin A derivatives and Fredericamycin A in their aqueous solutions were tested in accordance with the following procedures.
The test compounds were individually dissolved in dimethylsulfoxide, followed by dilution of the resulting solutions with physiological saline to adjust the final concentrations of the test compounds and Fredericamycin to 10 μg/ml respectively. The thus-prepared test solutions were then subjected to high performance liquid chromatography after predetermined time intervals to measure the percentage remainders of the test compounds.

various microorganisms [23] = details: prior art statement; cited from earlier work
[24] = prior art statement; cited from earlier work

C/C=C/C=C/c1cc2cc3c(c(O)c2c(=O)[nH]1)C1(CC3)C(=O)c2c(OC(C)=O)c3c(c(OC(C)=O)c2C1=O)C(=O)C(OC)=CC3=O (stereo not shown) [Compound 1, Fredericamycin A diacetate]
MIC [1]: 0.39 µg/mL | MIC [2]: 50 µg/mL | MIC [3]: 12.5 µg/mL | MIC [4]: 6.25 µg/mL | MIC [5]: 0.1 µg/mL | MIC (Sarcina lutea ATCC 9341): 0.39 µg/mL | MIC [6]: 1.56 µg/mL | MIC [7]: 0.78 µg/mL | MIC (Escherichia coli 0-1): > 100 µg/mL | MIC (Salmonella typhi TD): > 100 µg/mL | MIC (Shigella flexneri 2b): > 100 µg/mL | MIC [8]: > 100 µg/mL | MIC [9]: > 100 µg/mL | MIC (Proteus vulgaris OXK): > 100 µg/mL | MIC (Seratia marcescens NHL): > 100 µg/mL | MIC [10]: > 100 µg/mL | MIC (Saccharomyces ruxii 6507): 0.39 µg/mL | MIC [11]: 3.12 µg/mL | MIC [12]: 1.56 µg/mL | MIC [13]: 0.78 µg/mL | MIC [14]: 0.39 µg/mL | MIC [15]: 0.39 µg/mL | MIC [16]: > 100 µg/mL | MIC [17]: 1.56 µg/mL | MIC [18]: 50 µg/mL | MIC [19]: 0.78 µg/mL | MIC ([20]; 120 h; read-out: Minimum inhibitory concentration MIC): 0.05 µg/mL | MIC [21]: 100 µg/mL | response vs control in vivo at 0.125 mg/kg/day (Ehrlich carcinoma; 0.125 mg/kg/day): 147% | response vs control in vivo at 0.25 mg/kg/day (Ehrlich carcinoma; 0.25 mg/kg/day): 267% | response vs control in vivo at 0.5 mg/kg/day (Ehrlich carcinoma; 0.5 mg/kg/day): 295% | percentage of mean survival time of test and control animals (Meth-A fibrosarcoma; 0.25 mg/kg/day): 127% | percentage of mean survival time of test and control animals (Meth-A fibrosarcoma; 0.5 mg/kg/day): 191% | percentage of mean survival time of test and control animals (Meth-A fibrosarcoma; 1.0 mg/kg/day): 242%

CCCCCc1cc2cc3c(c(O)c2c(=O)[nH]1)C1(CC3)C(=O)c2c(OC(C)=O)c3c(c(OC(C)=O)c2C1=O)C(=O)C(OC)=CC3=O (stereo not shown) [Compound 18, diacetyltetrahydrofredericamycin A]
MIC [1]: 50 µg/mL (≈ 79.7 µM) | MIC [4]: 25 µg/mL (≈ 39.8 µM) | MIC [5]: 0.78 µg/mL (≈ 1.24 µM) | MIC (Sarcina lutea ATCC 9341): 25 µg/mL (≈ 39.8 µM) | MIC [6]: 25 µg/mL (≈ 39.8 µM) | MIC [7]: 25 µg/mL (≈ 39.8 µM) | MIC (Escherichia coli 0-1): > 100 µg/mL | MIC [8]: > 100 µg/mL | MIC [10]: > 100 µg/mL | MIC (Saccharomyces ruxii 6507): > 100 µg/mL | MIC [11]: > 100 µg/mL | MIC [13]: > 100 µg/mL | MIC [14]: > 100 µg/mL | MIC ([20]; 120 h, read-out: Minimum inhibitory concentration MIC): 0.78 µg/mL (≈ 1.24 µM) | MIC [21]: > 100 µg/mL | response vs control in vivo at 2 mg/kg/day (Ehrlich carcinoma; 2.0 mg/kg/day): 125% | response vs control in vivo at 4 mg/kg/day (Ehrlich carcinoma; 4.0 mg/kg/day): > 188% | response vs control in vivo at 8 mg/kg/day (Ehrlich carcinoma; 8.0 mg/kg/day): > 212% | percentage of median survival time of test and control animals (mouse leukemia P-388; 2.0 mg/kg/day): 138% | percentage of median survival time of test and control animals (mouse leukemia P-388; 4.0 mg/kg/day): 142% | percentage of median survival time of test and control animals (mouse leukemia P-388; 8.0 mg/kg/day): 147%

C/C=C/C=C/c1cc2cc3c(c(O)c2c(=O)[nH]1)C1(CC3)C(=O)c2c(O)c3c(c(O)c2C1=O)C(=O)C(OC)=CC3=O (stereo not shown) [Fredericamycin A]
MIC (various microorganisms [22]): ≥ 100 µg/mL | Percentage remainder (physchem; 0 hr.): 100% | remaining at 3 h (physchem; 3 hrs., read-out: Percentage remainder): 78.9% | remaining at 6 h (physchem; 6 hrs., read-out: Percentage remainder): 64% | remaining at 24 h (physchem; 24 hrs., read-out: Percentage remainder): 38.1% | remaining at 48 h (physchem; 48 hrs., read-out: Percentage remainder): 27.3% | remaining at 72 h (physchem; 72 hrs., read-out: Percentage remainder): 18.4% | antibacterial activities (various microorganisms [23]): weak | stability [24]: low
